The results in this text go back to patent US20030186817A1, “SUBSTITUTED 2,4-DIAMINO-1,3,5-TRIAZINES, PROCESSES FOR THEIR PREPARATION AND THEIR USE AS HERBICIDES AND PLANT GROWTH REGULATORS” (priority 1998, published 2003).

Each structure is given as a SMILES string.

What all share (format): in vivo
In experiment [1] the test system is Cyperus iria and Echinocloa crus-galli. The experiment can be described thus: Action on weeds in rice (paddy rice conditions, visual rating). Further: test concentration or dose not given here. The note with it: dammed height of water 2-3 cm, about three weeks after application. An excerpt:
Typical rice weeds such as Echinocloa crus galli and Cyperus iria are cultivated in a greenhouse under paddy rice conditions ([…] height of water: 2-3 cm). After the treatment, the test plants are set up in a greenhouse under optimum growth conditions and are maintained in this way under these conditions throughout the test period. About three weeks after application, evaluation is made by visual rating of the damage to the plants by comparison with untreated controls.

Experiment [2] relates to Stellaria media, Amaranthus retroflexus, Sinapis avreuse, Avena fatura, Lolium multiflorum and Setaria viridis. The experiment can be described thus: Post-emergence action against weeds (greenhouse pot test, visual rating). The note with it: three-leaf stage, application rate of 3.0 kg or less of active substance per hectare, 3 to 4 weeks in greenhouse. Here is the method:
Seeds of mono- and dicotyledonous weeds are placed in sandy loam soil in cardboard pots, covered with soil and cultivated in a greenhouse under good growth conditions. Two to three weeks after sowing, the test plants are treated at the three-leaf stage. The novel compounds, formulated as wettable powders or emulsion concentrates, are sprayed in various dosages onto the green parts of the plant at an application rate of from 600 to 8001 of water/ha (converted), and, after the test plants have remained in the greenhouse for 3 to 4 weeks under optimum growth conditions, the action of the preparations is rated visually by comparison with untreated controls. The novel compositions also have good post-emergence herbicidal activity against a broad spectrum of economically important weed grasses and broad-leaved weeds.

For experiment [3] the test system is unchanged. The experiment can be described thus: Pre-emergence action against weeds (greenhouse pot test, visual rating). The settings on record: application rate of 3.0 kg or less of active substance per hectare, trial period of 3 to 4 weeks. An excerpt: Seeds of mono- and dicotyledonous weed plants are placed in sandy loam soil in cardboard pots and covered with soil. The novel compounds, formulated as wettable powders or emulsion concentrates, are then applied to the surface of the soil cover in the form of an aqueous suspension or emulsion at an application rate of from 600 to 800 l of water/ha (converted), in various dosages. After the treatment, the pots are placed in a greenhouse and kept under good growth conditions for the weeds. After the test plants have emerged after a trial period of 3 to 4 weeks, the damage to the plants or the negative effect on emergence is rated visually by comparison with untreated controls. As shown by the test results, the novel compounds have good herbicidal pre-emergence activity against a broad spectrum of weed grasses and broad-leaved weeds.

With `CCC(CCOc1cc(F)cc(F)c1)Nc1nc(N)nc(C(C)(C)F)n1` (centres unmarked) [Example 370], in experiment [1], the “herbicidal activity against rice weeds (visual rating of damage)” value (“herbicidal activity against rice weeds” below) is reported as “very good herbicidal activity”. Further, in experiment [2], the “herbicidal activity post-emergence (rated visually)” value (“herbicidal activity post-emergence” below) is “good and in most cases very good herbicidal activity”. For the same compound, the “herbicidal activity pre-emergence (damage to the plants or negative effect on emergence, rated visually)” value (from here on “herbicidal activity pre-emergence”) in experiment [3] was “good and in most cases very good herbicidal activity”.

For `CC(CCOc1cc(F)cc(F)c1)Nc1nc(N)nc(C(C)C)n1` (centres unmarked) [Example 281], in experiment [1], the “herbicidal activity against rice weeds” value is reported as “very good herbicidal activity”. The “herbicidal activity post-emergence” value in experiment [2] is “good and in most cases very good herbicidal activity”. Besides, in experiment [3], the “herbicidal activity pre-emergence” value is “good and in most cases very good herbicidal activity”.

With `CCC(CCOc1cccc(OC)c1)Nc1nc(N)nc(C(C)C)n1` (centres unmarked) [Example 376], the “herbicidal activity against rice weeds” value in experiment [1] is “very good herbicidal activity”. In addition, the “herbicidal activity post-emergence” value in experiment [2] is “good and in most cases very good herbicidal activity”. For the same compound, the “herbicidal activity pre-emergence” value in experiment [3] was “good and in most cases very good herbicidal activity”.

`CCC(CCOc1cccc(Cl)c1)Nc1nc(N)nc(C(C)C)n1` (centres unmarked) [Example 372]: the “herbicidal activity against rice weeds” value in experiment [1] was “very good herbicidal activity”. Further, the “herbicidal activity post-emergence” value in experiment [2] is “good and in most cases very good herbicidal activity”. Besides, the “herbicidal activity pre-emergence” value in experiment [3] is “good and in most cases very good herbicidal activity”.

In the case of `CCC(CCOc1ccccc1)Nc1nc(N)nc(C(C)(C)F)n1` (centres unmarked) [Example 369], the “herbicidal activity against rice weeds” value in experiment [1] is recorded as “very good herbicidal activity”. Further, the “herbicidal activity post-emergence” value in experiment [2] is “good and in most cases very good herbicidal activity”. The “herbicidal activity pre-emergence” value in experiment [3] was “good and in most cases very good herbicidal activity”.

Regarding `CCC(CCOc1ccccc1)Nc1nc(N)nc(C(F)(F)C(F)F)n1` (centres unmarked) [Example 394], the “herbicidal activity against rice weeds” value in experiment [1] is “very good herbicidal activity”. Also, in experiment [3], the “herbicidal activity pre-emergence” value was “good and in most cases very good herbicidal activity”.

Take `Cc1cccc(COCC(C)Nc2nc(N)nc(C(C)(C)F)n2)c1` (centres unmarked) [Example 120]: the “herbicidal activity against rice weeds” value in experiment [1] is recorded as “very good herbicidal activity”. Moreover, the “herbicidal activity pre-emergence” value in experiment [3] is “good and in most cases very good herbicidal activity”.

`CCC(COC(=O)c1ccccc1OC(C)=O)Nc1nc(N)nc(C(C)C)n1` (centres unmarked) [Example 46]: the “herbicidal activity against rice weeds” value in experiment [1] is “very good herbicidal activity”. In addition, the “herbicidal activity post-emergence” value in experiment [2] was “good and in most cases very good herbicidal activity”.

For `CC(C)c1nc(N)nc(NCC=NOCc2ccccc2)n1` [Example 1253], the “herbicidal activity post-emergence” value in experiment [2] was “good and in most cases very good herbicidal activity”. Moreover, the “herbicidal activity pre-emergence” value in experiment [3] was “good and in most cases very good herbicidal activity”.

On to `CC(CCCCOc1ccccc1)Nc1nc(N)nc(C(C)F)n1` (centres unmarked) [Example 626], for which the “herbicidal activity post-emergence” value in experiment [2] is “good and in most cases very good herbicidal activity”. In experiment [3], the “herbicidal activity pre-emergence” value is “good and in most cases very good herbicidal activity”.

Consider `CCC(CCCCOc1ccccc1)Nc1nc(N)nc(C(C)(C)F)n1` (centres unmarked) [Example 598], for which, in experiment [2], the “herbicidal activity post-emergence” value was “good and in most cases very good herbicidal activity”. The “herbicidal activity pre-emergence” value in experiment [3] is “good and in most cases very good herbicidal activity”.

For the compound `Cc1cccc(OCCCC(Nc2nc(N)nc(C(C)(C)F)n2)C2CC2)c1` (centres unmarked) [Example 582], the “herbicidal activity post-emergence” value in experiment [2] is “good and in most cases very good herbicidal activity”. Moreover, the “herbicidal activity pre-emergence” value in experiment [3] is “good and in most cases very good herbicidal activity”.

On to `CC(C)c1nc(N)nc(NC(CCCOc2ccccc2)C2CC2)n1` (centres unmarked) [Example 554], for which the “herbicidal activity post-emergence” value in experiment [2] was “good and in most cases very good herbicidal activity”. Moreover, in experiment [3], the “herbicidal activity pre-emergence” value was “good and in most cases very good herbicidal activity”.

In the case of `CC(C)(F)c1nc(N)nc(NC(CCCOc2ccccc2)C2CC2)n1` (centres unmarked) [Example 528], the “herbicidal activity post-emergence” value in experiment [2] was “good and in most cases very good herbicidal activity”. The “herbicidal activity pre-emergence” value in experiment [3] is “good and in most cases very good herbicidal activity”.

Regarding `CCC(COCCOc1ccccc1)Nc1nc(N)nc(C(C)C)n1` (centres unmarked) [Example 1345], in experiment [2], the “herbicidal activity post-emergence” value was “good and in most cases very good herbicidal activity”. Besides, the “herbicidal activity pre-emergence” value in experiment [3] was “good and in most cases very good herbicidal activity”.

Consider `CC(COCCOc1ccccc1)Nc1nc(N)nc(C(C)(C)F)n1` (centres unmarked) [Example 1385], for which, in experiment [2], the “herbicidal activity post-emergence” value is “good and in most cases very good herbicidal activity”. Besides, the “herbicidal activity pre-emergence” value in experiment [3] was “good and in most cases very good herbicidal activity”.

With `CC(F)c1nc(N)nc(NCC(=O)NCc2ccccc2)n1` (centres unmarked) [Example 930], the “herbicidal activity post-emergence” value in experiment [2] was “good and in most cases very good herbicidal activity”. The “herbicidal activity pre-emergence” value in experiment [3] was “good and in most cases very good herbicidal activity”.

With `CC(CCCCOc1ccccc1)Nc1nc(N)nc(C(C)(C)F)n1` (centres unmarked) [Example 609], in experiment [2], the “herbicidal activity post-emergence” value was “good and in most cases very good herbicidal activity”. Moreover, in experiment [3], the “herbicidal activity pre-emergence” value was “good and in most cases very good herbicidal activity”.

On to `Cc1cccc(CNC(=O)C(C)Nc2nc(N)nc(C(C)(C)F)n2)c1` (centres unmarked) [Example 926], for which the “herbicidal activity post-emergence” value in experiment [2] is “good and in most cases very good herbicidal activity”. In addition, in experiment [3], the “herbicidal activity pre-emergence” value was “good and in most cases very good herbicidal activity”.

On to `Nc1nc(NC(CCCCOc2ccccc2)C2CC2)nc(C(F)(F)C(F)F)n1` (centres unmarked) [Example 645], for which the “herbicidal activity post-emergence” value in experiment [2] is “good and in most cases very good herbicidal activity”. The “herbicidal activity pre-emergence” value in experiment [3] is “good and in most cases very good herbicidal activity”.

`CC(C)(F)c1nc(N)nc(NCC=NOCc2ccccc2)n1` [Example 1252]: in experiment [2], the “herbicidal activity post-emergence” value is “good and in most cases very good herbicidal activity”. The “herbicidal activity pre-emergence” value in experiment [3] is “good and in most cases very good herbicidal activity”.

On to `CC(CCOc1cccc(F)c1)Nc1nc(N)nc(C(C)C)n1` (centres unmarked) [Example 300], for which the “herbicidal activity against rice weeds” value in experiment [1] is given as “very good herbicidal activity”. For the same compound, the “herbicidal activity pre-emergence” value in experiment [3] was “good and in most cases very good herbicidal activity”.

For the compound `CCC(CCCOc1ccccc1)Nc1nc(N)nc(C(C)C)n1` (centres unmarked) [Example 510], the “herbicidal activity post-emergence” value in experiment [2] is “good and in most cases very good herbicidal activity”. For the same compound, the “herbicidal activity pre-emergence” value in experiment [3] was “good and in most cases very good herbicidal activity”.

Regarding `CC(F)c1nc(N)nc(NCC=NOCc2ccccc2)n1` (centres unmarked) [Example 1307], the “herbicidal activity post-emergence” value in experiment [2] was “good and in most cases very good herbicidal activity”. Further, in experiment [3], the “herbicidal activity pre-emergence” value was “good and in most cases very good herbicidal activity”.

Turning to `CC(CCCCOc1ccccc1)Nc1nc(N)nc(C(F)(F)C(F)F)n1` (centres unmarked) [Example 696], in experiment [2], the “herbicidal activity post-emergence” value is “good and in most cases very good herbicidal activity”. Also, in experiment [3], the “herbicidal activity pre-emergence” value is “good and in most cases very good herbicidal activity”.

`Cc1cc(C)cc(CON=CCNc2nc(N)nc(C(C)(C)F)n2)c1` [Example 1236]: the “herbicidal activity post-emergence” value in experiment [2] is “good and in most cases very good herbicidal activity”. Moreover, in experiment [3], the “herbicidal activity pre-emergence” value is “good and in most cases very good herbicidal activity”.

With `CCC(CCCOc1ccccc1)Nc1nc(N)nc(C(C)(C)F)n1` (centres unmarked) [Example 490], the “herbicidal activity post-emergence” value in experiment [2] is “good and in most cases very good herbicidal activity”. In addition, in experiment [3], the “herbicidal activity pre-emergence” value is “good and in most cases very good herbicidal activity”.
